Source: PubChem BioAssay (NCI)
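These data come from cells grown in 96-well plates and exposed to compound for 48 hours at five concentrations. Abbreviation: GI50, concentration required for 50% inhibition of growth. TGI marks complete inhibition of growth.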

The compounds below were run on PC-3 prostate (assay: inhibition of tumour cell growth, NCI panel, 48 h).

Compared with `O=C1/C(=C\c2ccccc2)CN(C(=O)CCN2CCCCC2)C/C1=C/c1ccccc1`, `O=C1/C(=C/c2ccc(Cl)c(Cl)c2)CN(C(=O)CCN2CCC(=NO)CC2)C/C1=C\c1ccc(Cl)c(Cl)c1` is 2-fold lower in TGI: 3.25 µM for the first, 1.66 µM for the second.

Going from `O=C1NC(=N[C@@H](CO)c2ccccc2)S/C1=C\c1ccc2ncccc2c1` to `O=C(/C=C/C12c3ccccc3C(c3ccccc31)C1C(=O)NC(=O)C12)c1ccccn1` (centres undefined), the TGI falls from > 25 µM to 4.46 µM.

Going from `CCN(CC)CCCNc1ccc(C)c2sc3ccccc3c(=O)c12` to `CC1=C(C(=O)Nc2ccccc2)C(c2ccc(N(C)C)cc2)C(C(=O)Nc2ccccc2)=C(C)N1`, the TGI rises from 2.57 µM to > 100 µM.

In the case of `CCNc1nc(O)c(/C=C2\C=Nc3ncccc32)s1`, the TGI is reported as > 100 µM.

Going from `O=C1NC(=N[C@@H](CO)c2ccccc2)S/C1=C\c1ccc2ncccc2c1` to `O=C(/C=C/C12c3ccccc3C(c3ccccc31)C1C(=O)NC(=O)C12)c1ccccn1` (centres undefined), the GI50 falls from > 25000 nM to 1670 nM.

`O=C1/C(=C/c2ccc(Cl)c(Cl)c2)CN(C(=O)CCN2CCC(=NO)CC2)C/C1=C\c1ccc(Cl)c(Cl)c1` and `CCN(CC)CCCNc1ccc(C)c2sc3ccccc3c(=O)c12` are within 1.5-fold of each other in GI50: 545 nM for the first, 758 nM for the second.

With `CCNc1nc(O)c(/C=C2\C=Nc3ncccc32)s1` the GI50 was 4040 nM.

These compounds were tested on SF-295 CNS (assay: inhibition of tumour cell growth, NCI panel, 48 h).

In order of rising GI50:
1. N#Cc1nc2c(S(=O)(=O)c3ccc(Cl)cc3)c(N)n(Nc3cccc(Cl)c3)c2nc1C#N  42.7 nM
2. CCN1C(=S)N(CC)C2C1NC(=S)N2/N=C/C=C/c1ccccc1OC (centres undefined)  113 nM
3. O=C(Nc1cccc(-n2cc(-c3ccncc3)c(-c3cc(O)cc(Cl)c3)n2)c1)c1ccc(N2CCOCC2)c(C(F)(F)F)c1  614 nM
4. CCN(CC)CCCNc1ccc(C)c2sc3ccccc3c(=O)c12  808 nM
5. O=C1/C(=C/c2ccc(Cl)c(Cl)c2)CN(C(=O)CCN2CCC(=NO)CC2)C/C1=C\c1ccc(Cl)c(Cl)c1  1050 nM
6. O=C(/C=C/C12c3ccccc3C(c3ccccc31)C1C(=O)NC(=O)C12)c1ccccn1 (centres undefined)  1610 nM
7. CCNc1nc(O)c(/C=C2\C=Nc3ncccc32)s1  3450 nM
8. N#CC1(c2ccc(NC(=O)c3cccnc3NCc3ccncc3)cc2)CCCC1  9380 nM
9. O=C1NC(=N[C@@H](CO)c2ccccc2)S/C1=C\c1ccc2ncccc2c1  14400 nM
10. N#CC1c2ccccc2C=CN1C(=O)CCCl (centres undefined)  29400 nM
11. Cn1nccc1Nc1nccc(-c2ccn([C@H](CO)c3ccc(Cl)c(F)c3)c(=O)c2)n1  76300 nM

First: N#CC1(c2ccc(NC(=O)c3cccnc3NCc3ccncc3)cc2)CCCC1
Second: O=C(Nc1cccc(-n2cc(-c3ccncc3)c(-c3cc(O)cc(Cl)c3)n2)c1)c1ccc(N2CCOCC2)c(C(F)(F)F)c1
The TGI of the first is 9.8-fold higher: 27.3 µM for the first, 2.78 µM for the second.

First: CCN1C(=S)N(CC)C2C1NC(=S)N2/N=C/C=C/c1ccccc1OC (centres undefined)
Second: N#CC1c2ccccc2C=CN1C(=O)CCCl (centres undefined)
The TGI of the first is lower: 9.18 µM for the first, > 87.5 µM for the second.

`Cn1nccc1Nc1nccc(-c2ccn([C@H](CO)c3ccc(Cl)c(F)c3)c(=O)c2)n1` and `O=C1NC(=N[C@@H](CO)c2ccccc2)S/C1=C\c1ccc2ncccc2c1` cannot be ordered by TGI: > 100 µM for the first, > 25 µM for the second.

Going from `N#Cc1nc2c(S(=O)(=O)c3ccc(Cl)cc3)c(N)n(Nc3cccc(Cl)c3)c2nc1C#N` to `O=C1/C(=C/c2ccc(Cl)c(Cl)c2)CN(C(=O)CCN2CCC(=NO)CC2)C/C1=C\c1ccc(Cl)c(Cl)c1`, the TGI rises from 0.276 µM to 2.59 µM (9.4-fold).

`O=C1/C(=C\c2ccccc2)CN(C(=O)CCN2CCCCC2)C/C1=C/c1ccccc1` and `O=C(/C=C/C12c3ccccc3C(c3ccccc31)C1C(=O)NC(=O)C12)c1ccccn1` (centres undefined) are within 1.5-fold of each other in TGI: 3.16 µM for the first, 3.49 µM for the second.

Going from `CCN(CC)CCCNc1ccc(C)c2sc3ccccc3c(=O)c12` to `CC1=C(C(=O)Nc2ccccc2)C(c2ccc(N(C)C)cc2)C(C(=O)Nc2ccccc2)=C(C)N1`, the TGI rises from 2.22 µM to 50.2 µM (23-fold).

For `CCNc1nc(O)c(/C=C2\C=Nc3ncccc32)s1`, the TGI was > 100 µM.

These compounds were tested on SK-OV-3 ovarian (assay: inhibition of tumour cell growth, NCI panel, 48 h).

In order of rising GI50:
1. N#Cc1nc2c(S(=O)(=O)c3ccc(Cl)cc3)c(N)n(Nc3cccc(Cl)c3)c2nc1C#N  85.8 nM
2. CCN1C(=S)N(CC)C2C1NC(=S)N2/N=C/C=C/c1ccccc1OC (centres undefined)  505 nM
3. CCN(CC)CCCNc1ccc(C)c2sc3ccccc3c(=O)c12  1510 nM
4. O=C1/C(=C/c2ccc(Cl)c(Cl)c2)CN(C(=O)CCN2CCC(=NO)CC2)C/C1=C\c1ccc(Cl)c(Cl)c1  1850 nM
5. O=C(/C=C/C12c3ccccc3C(c3ccccc31)C1C(=O)NC(=O)C12)c1ccccn1 (centres undefined)  2400 nM
6. CCNc1nc(O)c(/C=C2\C=Nc3ncccc32)s1  2860 nM
7. O=C1NC(=N[C@@H](CO)c2ccccc2)S/C1=C\c1ccc2ncccc2c1  8100 nM
8. O=C(Nc1cccc(-n2cc(-c3ccncc3)c(-c3cc(O)cc(Cl)c3)n2)c1)c1ccc(N2CCOCC2)c(C(F)(F)F)c1  9630 nM
9. N#CC1c2ccccc2C=CN1C(=O)CCCl (centres undefined)  17200 nM
10. N#CC1(c2ccc(NC(=O)c3cccnc3NCc3ccncc3)cc2)CCCC1  21700 nM
11. Cn1nccc1Nc1nccc(-c2ccn([C@H](CO)c3ccc(Cl)c(F)c3)c(=O)c2)n1  47600 nM

`N#CC1(c2ccc(NC(=O)c3cccnc3NCc3ccncc3)cc2)CCCC1` and `O=C(Nc1cccc(-n2cc(-c3ccncc3)c(-c3cc(O)cc(Cl)c3)n2)c1)c1ccc(N2CCOCC2)c(C(F)(F)F)c1` cannot be ordered by TGI: > 84.1 µM for the first, > 100 µM for the second.

Compared with `CCN1C(=S)N(CC)C2C1NC(=S)N2/N=C/C=C/c1ccccc1OC` (centres undefined), `N#CC1c2ccccc2C=CN1C(=O)CCCl` (centres undefined) is lower in TGI: > 100 µM for the first, 31.3 µM for the second.

`Cn1nccc1Nc1nccc(-c2ccn([C@H](CO)c3ccc(Cl)c(F)c3)c(=O)c2)n1` and `O=C1NC(=N[C@@H](CO)c2ccccc2)S/C1=C\c1ccc2ncccc2c1` cannot be ordered by TGI: > 100 µM for the first, > 25 µM for the second.

Compared with `O=C1/C(=C\c2ccccc2)CN(C(=O)CCN2CCCCC2)C/C1=C/c1ccccc1`, `O=C1/C(=C/c2ccc(Cl)c(Cl)c2)CN(C(=O)CCN2CCC(=NO)CC2)C/C1=C\c1ccc(Cl)c(Cl)c1` is 2.8-fold lower in TGI: 9.77 µM for the first, 3.48 µM for the second.

Going from `CCN(CC)CCCNc1ccc(C)c2sc3ccccc3c(=O)c12` to `CC1=C(C(=O)Nc2ccccc2)C(c2ccc(N(C)C)cc2)C(C(=O)Nc2ccccc2)=C(C)N1`, the TGI rises from 4.82 µM to > 100 µM.

`CCNc1nc(O)c(/C=C2\C=Nc3ncccc32)s1` and `O=C(/C=C/C12c3ccccc3C(c3ccccc31)C1C(=O)NC(=O)C12)c1ccccn1` (centres undefined) are within 1.5-fold of each other in TGI: 9.12 µM for the first, 8.31 µM for the second.
